Assay: mn = molality of the nth substance listed, in mol/kg
Details: 101 kPa, Liquid; for electrical conductivity: CyberScan CON500 conductivity meter

[Cl-].[Li+] [lithium chloride] + O
Details	electrical conductivity [S/m]	mass density [kg/m3]	viscosity [mPa·s]
293.15 K, m1 = 17.8	–	–	14.89
298.15 K, m1 = 0.5	4.15	1009.4	0.97
298.15 K, m1 = 1	7.29	–	1.052
298.15 K, m1 = 2	12	1041.8	1.165
298.15 K, m1 = 3	15.2	1061.8	1.339
298.15 K, m1 = 4.5	17.7	1089.1	1.586
298.15 K, m1 = 6	18.7	1114.6	1.906
298.15 K, m1 = 8	17.9	1147	2.8
298.15 K, m1 = 11	15.1	1190.9	4.292
298.15 K, m1 = 14	11.7	1230.7	6.899
298.15 K, m1 = 17.8	8.5	1276.4	12.68
303.15 K, m1 = 0.5	4.58	1008.1	0.866
303.15 K, m1 = 1	8	1018.7	0.929
303.15 K, m1 = 2	13.2	–	1.047
303.15 K, m1 = 3	16.7	1060.3	1.239
303.15 K, m1 = 4.5	19.4	1087.7	1.422
303.15 K, m1 = 6	–	1113.1	1.713
303.15 K, m1 = 8	19.7	1145.4	2.486
303.15 K, m1 = 11	16.7	1189.3	3.812
303.15 K, m1 = 14	13.1	1228.9	6.073
303.15 K, m1 = 17.8	9.61	1274.6	11.54
308.15 K, m1 = 0.5	4.99	1006.6	0.782
308.15 K, m1 = 1	8.7	–	0.834
308.15 K, m1 = 2	14.4	1038.7	0.941
308.15 K, m1 = 3	18.2	1058.7	1.083
308.15 K, m1 = 4.5	–	1085.9	1.28
308.15 K, m1 = 6	–	1111.5	1.532
308.15 K, m1 = 8	–	1143.9	2.256
308.15 K, m1 = 11	18.3	1187.8	3.407
308.15 K, m1 = 14	14.5	1227.1	5.332
308.15 K, m1 = 17.8	10.9	1272.8	10.46
313.15 K, m1 = 0.5	5.43	1005.1	0.722
313.15 K, m1 = 1	9.45	1015.8	0.774
313.15 K, m1 = 2	15.6	–	0.866
313.15 K, m1 = 3	19.7	1056.9	0.977
313.15 K, m1 = 4.5	–	1084.4	1.177
313.15 K, m1 = 6	–	1110.1	1.406
313.15 K, m1 = 8	–	1142.3	2.071
313.15 K, m1 = 11	20	1186.1	3.091
313.15 K, m1 = 14	16	1225.3	4.812
313.15 K, m1 = 17.8	12.3	1270.7	9.741
318.15 K, m1 = 0.5	5.85	1003.5	0.668
318.15 K, m1 = 1	10.2	–	0.714
318.15 K, m1 = 2	16.8	1035.2	0.802
318.15 K, m1 = 3	–	1055.5	0.91
318.15 K, m1 = 4.5	–	1083	1.076
318.15 K, m1 = 6	–	1108.4	1.293
318.15 K, m1 = 8	–	1140.7	1.919
318.15 K, m1 = 11	–	1184.3	2.869
318.15 K, m1 = 14	17.5	1223.5	4.412
318.15 K, m1 = 17.8	13.6	1268.9	8.984
323.15 K, m1 = 0.5	6.28	1002.2	0.625
323.15 K, m1 = 1	11	1012.5	0.665
323.15 K, m1 = 2	18.1	1033.8	0.747
323.15 K, m1 = 3	–	–	0.859
323.15 K, m1 = 4.5	–	1081.1	1.003
323.15 K, m1 = 6	–	1106.4	1.194
323.15 K, m1 = 8	–	1138.8	1.742
323.15 K, m1 = 11	–	1182.6	2.69
323.15 K, m1 = 14	19.1	1221.8	4.123
323.15 K, m1 = 17.8	15.1	1266.9	8.265
